Laboratory results published in patent US20140004108A1, “Methods for Modulation of Autophagy Through the Modulation of Autophagy-Enhancing Gene Products” (HARVARD MEDICAL SCHOOL, priority 2009, published 2014).
“Also recorded” adds a separate entry of the source.

Experiments:
Format in all cases: cell-based, human
[1] = tested on: LC3; experiment: Western blot of autophagy markers (LC3 II, p62, Atg12-Atg5); settings: for autophagy by LC3 western blot (LC3 II/tubulin ratio): 100 ng/mL IGF1, 50 ng/mL FGF2, LIF or CLCF1, 10 μg/mL E64d, with or without 50 nM rapamycin pre-treatment
Protocol: (§1) For the cytokine assays, cells were seeded at 0.5×10^5 in full medium in either 24-well (western) or 96-well (LC3-GFP quantification) plates. After 24 hours, cells were washed in PBS and serum-free OPTIMEM™ medium (Invitrogen) was added along with the indicated growth factors and/or cytokines for an additional 24 hours. Growth factors and cytokines used include human TNFα (Cell Sciences), human LIF (GeneScript Corporation), human FGF2 (ProSpec), human IGF1 (ProSpec), human SDF1 (Prospec) and human CLCF1 (R&D Systems). To induce starvation, cells were cultured for 24 hours in full media, washed in PBS and cultured for additional 4 hours in HBSS media (Invitrogen).
(§2) For western blot analysis, lysosomal protease inhibitor E64d (Sigma) was added at a concentration of 10 μg/mL for the last 8-12 hours before cell lysis.
(§3) For western blots, cells were lysed in Lammeli sample buffer, resolved on a 10-12% SDS-PAGE gel and transferred to PVDF membrane. The following antibodies were used: LC3 (Novus), p62 (Pharmigen), phospho-S6K (Thr389), phospho-Akt (Ser473), phospho-Stat3 (Tyr705), RelA, Sod1, phospho-PTEN (Ser380/Thr382/383) (all Cell Signaling), Bcl-2 (Santa Cruz), all at 1:1000, phospho-S6 (Ser235/236) (Cell Signaling) and phospho-ERK 1/2 (Sigma) at 1:2000, tubulin (Sigma) at 1:5000. Where indicated, blots were quantified using NIH ImageJ64 software.

[2] = tested on: H4 cells stably expressing LC3-GFP; experiment: LC3-GFP translocation to autophagosomes, image-based autophagy assay; settings: for autophagy as measured by LC3-GFP translocation: H4 LC3-GFP cells grown in serum-free medium, treated with cytokine
Protocol: (§4) H4 human neuroblastoma cells were cultured under standard tissue culture conditions in DMEM media supplemented with 10% normal calf serum, penicillin/streptomycin, sodium pyruvate (Invitrogen) and, where appropriate, 0.4-1.2 mg/mL G418. LC3-GFP and FYVE-dsRed H4 cells were generated as described in Zhang et al., PNAS, 102, 15545-15550 ([…]). To create a stable line expressing Lamp1, H4 cells were transfected with Lamp1-RFP plasmid using TRANSIT_LT1® transfection reagent (Mirus), followed by selection with 0.4 mg/mL G418. Bcl-2 expressing cell lines were created by infecting LC3-GFP and FYVE-dsRed H4 cells with pBabe-Bcl-2 retrovirus, followed by selection with 1 μg/mL puromycin.
as §1, §2
For the primary screens, an arrayed library of 21,121 siRNA pools covering the majority of the human genome were used (Dharmacon siARRAY™ siRNA library (Human Genome, G-005000-05), Thermo Fisher Scientific, Lafayette, Colo.). Each pool contained of 4 unique oligonucleotides targeting different sequences from the same gene. Each assay plate also included the following controls: non-targeting siRNA, mTOR siRNA, ATG5 siRNA and PLK1 siRNA (a transfection efficiency control). siRNAs were transiently transfected in triplicate into H4 cells stably expressing a LC3-GFP reporter at a final concentration of 40 nM using reverse transfection with the […]® reagent (Qiagen). […]® reagent was diluted 1:20 in DMEM and 8 μl of the mixture was added to wells of 384 well plates. The plates were centrifuged at 1,000 rpm, after which 2 μl of 1 μM arrayed siRNA pools were added to each well. After 30 minutes of incubation, 500 cells in 40 μl of media were added to the wells. Cells were incubated for 72 hours under standard culture conditions, counterstained with 0.5 μM Hoechst 33342 (Invitrogen) for 1 hour and fixed by addition of 30 μl of 8% paraformaldehyde. After 30 minutes, cells were washed 3 times with PBS prior to analysis.
For secondary screens, a siRNA library was used in which the 4 siRNAs of each siRNA pool were separated into individual wells. The cells were transfected and treated as in the primary screen, except that siRNAs were used at a final concentration of 30 nM (1.5 μL/well of 1 uM stock) and […]® reagent was diluted 1:30 in OPTIMEM™ (Invitrogen). The secondary screen transfections were done in 2 rounds: in the first one a 1:1 mixture of H4 cells stably expressing LC3-GFP with FYVE-dsRed was transfected in triplicate; in the second round a 1:1 mixture of H4 cells expressing LC3-GFP with Lamp1-RFP was transfected in duplicate. All tertiary characterization screens were done in duplicate using a mixture of LC3-GFP and FYVE-dsRed cells. Each assay plate included 10-12 wells of non-targeting siRNA as well as mTOR, ATG5, PLK1 and, depending on screen, Vps34 or SOD1 siRNA controls.
(§5) For high-throughput screens, cells were imaged on an automated CellWoRx microscope (Applied Precision) at 10× magnification using 2 wavelengths (350 nm to detect Hoechst, 488 nm to detect LC3-GFP) for the primary screens and 3 wavelengths (350 nm, 488 nm and 550 nm to detect Lamp1-RFP or FYVE-dsRed) for the secondary screens.

[3] = tested on: H4 cells; experiment: Western blot of signalling phosphorylation (phospho-ERK1/2, RSK, Stat3, Akt, Foxo3a, S6K); settings: for activating phosphorylation of Stat3: H4, 50 ng/mL LIF or CLCF1
Protocol: as §1, §3

[4] = tested on: type III PI3 kinase; experiment: FYVE-dsRed vesicle recruitment (PtdIns3P levels); settings: FYVE-dsRed cells, 3MA 10 mM 8 hours or NAC
Protocol: as §4, §5

[5] = tested on: GRP78 and GRP94; experiment: In-cell-western of KDEL (GRP78/GRP94) expression, ER stress; settings: H4 cells
Protocol: For quantitative analysis of mTORC1 signaling and induction of endoplasmic reticulum stress, in-cell-western analysis of rpS6 phosphorylation and KDEL (GRP78/GRP94) expression (‘KDEL’ disclosed as SEQ ID NO: 2), respectively, were performed. H4 cells were cultured in 384-well plates and fixed and counterstained as described for the LC3-GFP assay. Following imaging, the cells were permeabilized in PBS containing 0.2% Tx-100 and stained with ALEXA FLOUR®—680NHS-ester, a non-specific lysine reactive probe used to measure relative cell number, at 20 ng/mL for 15 minutes. Subsequently, the cells were washed with PBS containing 0.2% Tx-100 and incubated for 30 minutes in blocking buffer (LICOR® Blocking Buffer diluted 1:1 with PBS+0.2% Tx-100). Cells were then incubated overnight with a rabbit-anti-rpS6 phospho-235/236 (Cell Signaling Technologies), or mouse-anti-KDEL (Stressgen) antibody (‘KDEL’ disclosed as SEQ ID NO: 2) diluted 1:1000 in blocking buffer. […] The intensities of both, the rpS6 phospho-235/236 or KDEL staining (‘KDEL’ disclosed as SEQ ID NO: 2), and of NHS-ester staining were integrated, and the normalized phospho-S6 or KDEL score (‘KDEL’ disclosed as SEQ ID NO: 2) were calculated by dividing phospho-rpS6 or KDEL intensity (‘KDEL’ disclosed as SEQ ID NO: 2) by NHS-ester intensity. […]

## FGF2: human FGF2 (ProSpec); fibroblast growth factor 2 (basic)
[1]; H4, serum-free
  autophagy by LC3 western blot (LC3 II/tubulin ratio): able to suppress autophagy in the absence and presence of rapamycin
[2]
  autophagy as measured by LC3-GFP translocation: significant down-regulation of autophagy
[3]; H4, serum-free, 50 ng/mL FGF2
  phospho-ERK1/2 and phospho-RSK levels: increased level of phospho-ERK1/2 and phospho-RSK

## O=c1[nH]c2ccccc2n1C1CCN(Cc2ccc(-c3nc4cc5[nH]cnc5cc4nc3-c3ccccc3)cc2)CC1 [Akt inhibitor VIII, reference compound]
[1]; 100 ng/mL IGF1, LC3 western
  inhibition of autophagy by IGF1, effect of Akt inhibitor: prevented inhibition of autophagy by IGF1
[3]; IGF1-treated cells with Akt inhibitor VIII
  phosphorylation of Foxo3a and S6 kinase: attenuated phosphorylation of both Foxo3a and the mTORC1 target S6 kinase

## TNFα
[1]; H4 cells, low levels of TNFα (5 ng/ml, FIG. 31B)
  p62 level by western blot: significant accumulation of p62
[2]; H4 LC3-GFP cells in defined medium, higher doses of TNFα
  autophagy (LC3-GFP), higher doses: up-regulation of autophagy
[2]; H4 LC3-GFP cells in defined medium, low doses of TNFα
  autophagy (LC3-GFP), low doses: down-regulation of autophagy

## LIF: human LIF (GeneScript Corporation); leukemia inhibitory factor
[1]; H4, serum-free
  autophagy by LC3 western blot (LC3 II/tubulin ratio): able to suppress autophagy in the absence and presence of rapamycin
[2]
  autophagy as measured by LC3-GFP translocation: significant down-regulation of autophagy
[3]
  activating phosphorylation of Stat3: increased activating phosphorylation of Stat3

## N#CC(=C(/N)Sc1ccccc1N)/C(C#N)=C(/N)Sc1ccccc1N [UO126, reference compound]
[1]; H4, serum-free, 50 ng/mL FGF2, 10 μg/mL E64d, pre-treatment with UO126
  inhibition of autophagy by FGF2, effect of MEK inhibitor: attenuated inhibition of autophagy; also recorded: prevented

## CC(=O)N[C@@H](CS)C(=O)O [NAC, N-acetyl-L-cysteine, reference compound]
[2]; H4 LC3-GFP, with antioxidant NAC 2.5 mM
  induction of autophagy caused by knock-down of Sod1: significantly attenuated induction of autophagy
[4]
  Aβ-induced accumulation of PtdIns3P in presence of inhibitor or antioxidant: suppressed

## IGF1: human IGF1 (ProSpec); insulin-like growth factor 1
[1]; H4, serum-free
  autophagy by LC3 western blot (LC3 II/tubulin ratio): able to suppress autophagy in the absence and presence of rapamycin
[2]
  autophagy as measured by LC3-GFP translocation: significant down-regulation of autophagy
[3]; in both the absence and presence of rapamycin, 100 ng/mL IGF1
  phosphorylation of Akt and Foxo3a: increased

## SDF1: human SDF1 (Prospec); chemokine SDF1 (CXCL12)
[2]
  autophagy as measured by LC3-GFP translocation: significant down-regulation of autophagy

## tunicamycin [reference compound]
[2]; H4 cells
  autophagy after ER stress inducer: increase in autophagy
[5]
  levels of GRP78 and GRP94 (ER stress markers): dose-dependent up-regulation of GRP78 and GRP94

B1: CLCF1: human CLCF1 (R&D Systems); cardiotrophin-like cytokine factor 1 (protein, UniProt Q9UBD9 28-225, looked up)
Cardiotrophin-like cytokine …: LNRTGDPGPGPSIQKTYDLTRYLEHQLRSLAGTYLNYLGPPFNEPDFNPPRLGAETLPRATVDLEVWRSLNDKLRLTQNYEAYSHLLCYLRGLNRQAATAELRRSLAHFCTSLQGLLGSIAGVMAALGYPLPQPLPGTEPTWTPGPAHSDFLQKMDDFWLLKELQTWLWRSAKDFNRLKKKMQPPAAAVTLHLGAHGF
[1]; H4, serum-free
  autophagy by LC3 western blot (LC3 II/tubulin ratio): able to suppress autophagy in the absence and presence of rapamycin
[2]
  autophagy as measured by LC3-GFP translocation: significant down-regulation of autophagy
[3]
  activating phosphorylation of Stat3: increased activating phosphorylation of Stat3
